Data from patent publication US20210070748A1, “INHIBITORS OF BRUTONS TYROSINE KINASE” (Pharmacyclics LLC, priority 2015, published 2021).
pIC50: −log10 of the molar value.

How the values were obtained:
Format in all cases: biochemical
[1] = biological target: T1, TXK (Homo sapiens, UniProt P42681); assay: Inhibition of a panel of kinases, in vitro HotSpot kinase assay: TXK; details: Table 15, C compounds; 1 μM ATP
T1 sequence (P42681 1-527): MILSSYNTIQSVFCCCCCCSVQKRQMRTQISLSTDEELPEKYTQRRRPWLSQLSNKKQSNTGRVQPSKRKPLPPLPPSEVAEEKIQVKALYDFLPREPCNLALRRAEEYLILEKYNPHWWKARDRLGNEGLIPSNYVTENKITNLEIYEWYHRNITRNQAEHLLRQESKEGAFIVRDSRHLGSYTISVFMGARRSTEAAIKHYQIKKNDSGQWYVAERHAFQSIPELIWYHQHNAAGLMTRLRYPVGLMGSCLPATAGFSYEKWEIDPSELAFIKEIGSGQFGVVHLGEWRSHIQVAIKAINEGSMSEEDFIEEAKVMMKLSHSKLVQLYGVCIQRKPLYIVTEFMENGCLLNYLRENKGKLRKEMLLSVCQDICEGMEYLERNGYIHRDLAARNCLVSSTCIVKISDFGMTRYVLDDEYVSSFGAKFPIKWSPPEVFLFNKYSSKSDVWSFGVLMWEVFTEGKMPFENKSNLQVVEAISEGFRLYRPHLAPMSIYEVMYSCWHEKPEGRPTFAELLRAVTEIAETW
Description: (§1) The degree of inhibition of a panel of kinases is determined using the in vitro HotSpot kinase assay (purified enzymes, ^33P-ATP, an appropriate substrate and 1 μM ATP).

[2] = biological target: T2, TEC (Homo sapiens, UniProt P42680); assay: Inhibition of a panel of kinases, in vitro HotSpot kinase assay: TEC; details: for pIC50: 1 μM ATP; for TEC* IC50 relative to Btk IC50 value: fold relative to Btk IC50 value
T2 sequence (P42680 1-631): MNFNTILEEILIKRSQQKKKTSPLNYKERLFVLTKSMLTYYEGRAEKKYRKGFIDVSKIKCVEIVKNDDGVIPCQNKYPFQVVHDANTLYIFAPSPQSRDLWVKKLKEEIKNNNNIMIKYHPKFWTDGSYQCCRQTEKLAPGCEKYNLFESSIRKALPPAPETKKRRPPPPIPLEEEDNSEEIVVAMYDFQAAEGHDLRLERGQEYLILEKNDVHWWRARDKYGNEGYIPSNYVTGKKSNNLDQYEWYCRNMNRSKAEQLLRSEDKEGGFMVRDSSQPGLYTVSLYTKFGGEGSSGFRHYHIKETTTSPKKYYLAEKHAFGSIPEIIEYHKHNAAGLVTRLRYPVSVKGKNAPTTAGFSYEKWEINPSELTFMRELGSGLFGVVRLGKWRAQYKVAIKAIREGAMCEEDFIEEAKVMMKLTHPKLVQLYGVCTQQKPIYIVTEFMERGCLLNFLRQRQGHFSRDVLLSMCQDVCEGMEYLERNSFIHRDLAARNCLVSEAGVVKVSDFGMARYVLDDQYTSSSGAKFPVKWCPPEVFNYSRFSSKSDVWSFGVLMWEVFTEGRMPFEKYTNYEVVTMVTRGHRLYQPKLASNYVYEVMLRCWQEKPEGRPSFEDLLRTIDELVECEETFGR
Description: as §1

[3] = biological target: T3, ITK (Homo sapiens, UniProt Q08881); assay: Inhibition of a panel of kinases, in vitro HotSpot kinase assay: ITK; details: for pIC50: 1 μM ATP; for ITK* IC50 relative to Btk IC50 value: fold relative to Btk IC50 value
T3 sequence (Q08881 1-620): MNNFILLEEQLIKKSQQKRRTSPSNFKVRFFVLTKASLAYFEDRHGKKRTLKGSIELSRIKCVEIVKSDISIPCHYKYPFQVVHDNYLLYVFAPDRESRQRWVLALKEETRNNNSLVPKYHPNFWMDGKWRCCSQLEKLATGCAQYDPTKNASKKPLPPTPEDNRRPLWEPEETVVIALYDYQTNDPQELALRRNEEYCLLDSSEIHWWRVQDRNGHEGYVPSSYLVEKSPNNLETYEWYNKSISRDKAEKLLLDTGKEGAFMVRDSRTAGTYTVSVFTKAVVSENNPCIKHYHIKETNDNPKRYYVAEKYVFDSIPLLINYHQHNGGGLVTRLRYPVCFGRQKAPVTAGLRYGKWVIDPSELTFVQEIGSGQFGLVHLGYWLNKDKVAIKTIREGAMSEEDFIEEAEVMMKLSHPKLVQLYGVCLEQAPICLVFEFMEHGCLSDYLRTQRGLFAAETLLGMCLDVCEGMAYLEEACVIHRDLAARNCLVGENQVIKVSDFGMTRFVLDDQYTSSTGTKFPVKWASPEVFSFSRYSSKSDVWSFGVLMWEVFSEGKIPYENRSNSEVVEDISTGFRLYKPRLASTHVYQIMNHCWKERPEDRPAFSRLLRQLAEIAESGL
Description: as §1

Row | pIC50 ([2]; Table 13, A compounds) | pIC50 ([3]; Table 13, A compounds) | TEC* IC50 relative to Btk IC50 value [2] | ITK* IC50 relative to Btk IC50 value [3] | SMILES | other results
1 |  |  |  |  | C=CC(=O)N1CCC[C@@H](Nc2cnc(C(N)=O)c(Nc3ccc(C4CCN(C5CCCC5)CC4)cc3)n2)C1 [Example C-84, (R)-5-(1-acryloylpiperidin-3-ylamino)-3-(4-(1-cyclopentylpiperidin-4-yl)phenylamino)pyrazine-2-carboxamide] | pIC50 [1]: ≥ 8.00; pIC50 ([2]; Table 15, C compounds): ≥ 8.00; pIC50 ([3]; Table 15, C compounds): ≥ 8.00
2 | 6.00 to 7.00 | 6.00 to 7.00 |  |  | C[C@@H]1[C@H](NC(=O)N(C)C)CCCN1c1cnc(C(N)=O)c(Nc2ccc(N3CCN(C)CC3)cc2)n1 [Example A-100, 5-[(2R,3R)-3-[(dimethylcarbamoyl)amino]-2-methylpiperidin-1-yl]-3-{[4-(4-methylpiperazin-1-yl)phenyl]amino}pyrazine-2-carboxamide] | 
3 |  |  | 5x | 360x | Cn1cc(Nc2nc(N3CCC[C@@H](NC(=O)c4ccc(C5CC5)cc4)C3)nnc2C(N)=O)cn1 [Example A-202, 3-[(3R)-3-(4-cyclopropylbenzamido)piper-idin-1-yl]-5-[(1-methyl-1H-pyrazol-4-yl)amino]-1,2,4-triazine-6-carboxamide] | 
4 |  |  | 3x | 99x | C[C@@H]1[C@H](NC(=O)c2ccc(C(C)(C)O)cc2)CCCN1c1cnc(C(N)=O)c(Nc2cnn(C)c2)n1 [Example A-200, 5-((2R,3R)-3-(4-(2-hydroxypropan-2-yl)benzamido)-2-methyl-piperidin-1-yl)-3-(1-methyl-1H-pyrazol-4-yl-amino)pyrazine-2-carboxamide] | 
5 |  |  |  |  | C=CC(=O)N1CCC[C@@H](Nc2nnc(C(N)=O)c(Nc3ccc(C(C)(C)C)cc3)n2)C1 [Example C-40, (R)-3-(1-acryloylpiperidin-3-ylamino)-5-(4-tert-butylphenylamino)-1,2,4-triazine-6-carboxamide] | pIC50 [1]: ≥ 8.00; pIC50 ([2]; Table 15, C compounds): ≥ 8.00; pIC50 ([3]; Table 15, C compounds): ≥ 8.00
6 | 7.00 to 8.00 | 6.00 to 7.00 |  |  | C[C@@H]1[C@H](NC(=O)c2cc3c(n2C)CC(C)(C)C3)CCCN1c1cnc(C(N)=O)c(Nc2cnn(C)c2)n1 [Example A-193, N-((2R,3R)-1-(5-carbamoyl-6-(1-methyl-1H-pyrazol-4-ylamino)pyrazin-2-yl)-2-methylpiperidin-3-yl)-1,5,5-trimethyl-1,4,5,6-tetrahydrocyclo-penta[b]pyrrole-2-carboxamide] | 
7 |  |  |  |  | C=CC(=O)N1CCC[C@@H](Nc2nnc(C(N)=O)c(Nc3cc(C)ns3)n2)C1 [Example C-56, (R)-3-(1-acryloylpiperidin-3-ylamino)-5-(3-methylisothiazol-5-ylamino)-1,2,4-triazine-6-carboxamide] | pIC50 [1]: ≥ 8.00; pIC50 ([2]; Table 15, C compounds): ≥ 8.00; pIC50 ([3]; Table 15, C compounds): ≥ 8.00
8 |  |  |  |  | C=CC(=O)N1CCC[C@@H](N(C)c2cnc(C(N)=O)c(Nc3ccc(C(C)C)cc3)n2)C1 [Example C-42, (R)-5-((1-acryloylpiperidin-3-yl)(methyl)amino)-3-(4-isopropylphenylamino) pyrazine-2-carboxamide] | pIC50 [1]: ≥ 8.00; pIC50 ([2]; Table 15, C compounds): ≥ 8.00; pIC50 ([3]; Table 15, C compounds): 7.00 to 8.00
9 |  |  |  |  | C=CC(=O)N1CC[C@@H](N(C)c2cnc(C(N)=O)c(Nc3ccc(C4CCN(C5CCCC5)CC4)cc3)n2)C1 [Example C-85, (R)-5-((1-acryloylpyrrolidin-3-yl)(methyl)amino)-3-(4-(1-cyclopentylpiperidin-4-yl)phenylamino) pyrazine-2-carboxamide] | pIC50 [1]: ≥ 8.00; pIC50 ([2]; Table 15, C compounds): ≥ 8.00; pIC50 ([3]; Table 15, C compounds): ≥ 8.00
10 | 5.00 to 6.00 | < 5.00 |  |  | Cc1nn(C)cc1Nc1nc(N2CCC[C@@H](NC(=O)c3ccc(C4CC4)cc3)[C@H]2C)cnc1C(N)=O [Example A-192, 5-((2R,3R)-3-(4-cyclopropylbenzamido)-2-methylpiperidin-1-yl)-3-(1,3-dimethyl-1H-pyrazol-4-ylamino)pyrazine-2-carboxamide] | 
11 | 7.00 to 8.00 | 6.00 to 7.00 |  |  | CN1CCN(c2ccc(Nc3nc(N4CCC[C@@H](n5ccc6cc(C7CC7)ccc6c5=O)C4)cnc3C(N)=O)cc2)CC1 [Example A-99, 5-[(3R)-3-(6-cyclo-propyl-1-oxo-1,2-dihydroisoquinolin-2-yl)piperidin-1-yl]-3-{[4-(4-methylpiperazin-1-yl)phenyl]amino}pyrazine-2-carboxamide] | 
12 |  |  | 3x | 133x | C[C@@H]1[C@H](NC(=O)c2ccc(C3CC3)cc2)CCCN1c1cnc(C(N)=O)c(Nc2cnn(C(F)F)c2)n1 [Example A-198, 5-[(2R,3R)-3-(4-cyclopropylbenzamido)-2-methylpiperidin-1-yl]-3-{[1-(difluoromethyl)-1H-pyrazol-4-yl]amino}pyrazine-2-carboxamide] | 
13 | 5.00 to 6.00 | < 5.00 |  |  | Cc1c(Nc2nc(N3CCC[C@@H](NC(=O)c4ccc(C5CC5)cc4)[C@H]3C)cnc2C(N)=O)cnn1C [Example A-191, 5-((2R,3)R-3-(4-cyclopropylbenzamido)-2-methylpiperidin-1-yl)-3-(1,5-dimethyl-1H-pyrazol-4-ylamino)pyrazine-2-carboxamide] | 
14 |  |  | 1x | 157x | C[C@@H]1[C@H](NC(=O)c2ccc(C3COC3)cc2)CCCN1c1cnc(C(N)=O)c(Nc2cnn(C)c2)n1 [Example A-206, 3-(1-methyl-1H-pyrazol-4-ylamino)-5-((2R,3R)-2-methyl-3-(4-(oxetan-3-yl)benzamido)piperidin-1-yl)pyrazine-2-carboxamide] | 
15 | 6.00 to 7.00 | 5.00 to 6.00 |  |  | C[C@@H]1[C@H](NC(=O)N(C)C)CCCN1c1cnc(C(N)=O)c(Nc2ccc(C(=O)N3CCN(C)CC3)cc2)n1 [Example A-98, 5-[(2R,3R)-3-[(dimethylcarbamoyl)amino]-2-methylpiperidin-1-yl]-3-{[4-(4-methylpiperazine-1-carbonyl)phenyl]amino}pyrazine-2-carboxamide] | 
16 |  |  | 8x | 234x | C[C@@H]1[C@H](NC(=O)c2ccc(C3CC3)cc2)CCCN1c1nnc(C(N)=O)c(Nc2cnn(C)c2)n1 [Example A-201, 3-[(2R,3R)-3-(4-cyclopropylbenzamido)-2-methylpiperidin-1-yl]-5-[(1-methyl-1H-pyrazol-4-yl)amino]-1,2,4-triazine-6-carboxamide] | 
17 |  |  | 3x | 135x | C[C@@H]1[C@H](NC(=O)c2ccc(C3CC3)cc2)CCCN1c1cnc(C(N)=O)c(Nc2cnn(C3CC3)c2)n1 [Example A-205, 3-[(1-cyclopropyl-1H-pyrazol-4-yl)amino]-5-[(2R,3R)-3-(4-cyclopropylbenzamido)-2-methylpiperidin-1-yl]pyrazine-2-carboxamide] | 
18 |  |  | 8x | 787x | C[C@@H]1[C@H](NC(=O)c2ccc(C(C)(C)C)cc2)CCCN1c1cnc(C(N)=O)c(Nc2cnn(C)c2)n1 [Example A-203, 5-((2R,3R)-3-(4-tert-butylbenzamido)-2-methylpiperidin-1-yl)-3-(1-methyl-1H-pyrazol-4-ylamino)pyrazine-2-carboxamide] | 
